Experimental data published in patent US6013244A, “21-(2-oxo-tetrahydrofuran)-thio pregnane derivatives, a process for their production and pharmaceutical compositions containing them” (Glaxo Wellcome Inc., priority 1995, dated 2000).

Key:
[1] = tested on: Adrenocorticotrophic hormone (ACTH); assay: Systemic Effects - ACTH Suppression in Adrenalectomised Rats; format: in vivo; details: adrenalectomised male CD rats, plasma
Protocol: (II) Systemic Effects--ACTH Suppression in Adrenalectomised Rats
Male CD rats (90-120 g) were adrenalectomised under Isoflurane anaesthesia and drinking water was supplemented with 0.9% saline. Four days later the animals receive a single intravenous dose of compound dissolved in DMA/PEG-200/distilled water (1:6:3) (0.2 ml) at 10 am. At 2 h and 4 h afterwards animals are sacrificed by administration of Euthetal and blood samples are taken by intra-cardiac puncture and collected into heparinised tubes. The samples are centrifuged (20 minutes at 1000 RPM at 4 deg C), the plasma is collected and assayed by Radioimmunoassay (RIA) for Adrenocorticotrophic hormone (ACTH) using a DPC double antibody RIA kit. Intact and vehicle control groups for each time point assessed were included in each experiment in order to account for diurnal variation in ACTH and effects of vehicle. Results are calculated with respect to the RIA standard curve and expressed as ACTH pg/ml plasma, allowing percentage reduction in ACTH to be calculated.

lung eosinophilia = assay: Inhibition of lung eosinophilia in Brown Norway rats; format: in vivo; details: OVA-sensitised male Brown Norway rats, lung lavage on day 16
Protocol: (i) Anti-inflammatory Activity--Inhibition of lung eosinophilia in Brown Norway rats
Male Brown norway rats (150-180 g) are sensitised with 1 ml intra-peritoneally (ip) containing 10 mg Al (OH)3 +1 mg Ovalbumin (OVA) on day 1. On day 7 each rat received 1 ml ip containing 10 mg Al(OH)3 +100 ug OVA. On day 14, each rat received an intratracheal (IT) dose of compound or vehicle (0.2 ml), under isoflurane anaesthesia. Compounds are suspended in 0.9% saline/0.2% Tween 80. 4 h after compound administration, each animal receives 400 ug OVA in saline IT (0.2 ml). On day 16, animals are killed and the lungs lavaged with 5 mls of lavage fluid (10 mM EDTA, phosphate buffered saline (pH 7.4), 5 units heparin/ml, 0.1% BSA). The samples are centrifuged at 1000 RPM for 10 minutes. The supernatant is removed and the cells resuspended in 0.5 ml lavage fluid. Total cells are counted with a Sysmex counter. Cytospin slides are prepared using 75 ul of the cell suspension and the cells are stained with May-Grunwald stain. Differential cell counts are performed using a microscope. Numbers of eosinophils are calculated per ul of lavage fluid per rat allowing percentage reduction in eosinophilia to be calculated.

[2] = target: T1, Human Glucocorticoid Receptor (Homo sapiens, UniProt P04150); assay: functional in vitro glucocorticoid assay, MMTV-sPAP reporter gene in transfected Hela cells; format: cell-based
T1 construct: endogenous in cells; host or cells: HeLa cells stably transfected with the MMTV-LTR/sPAP reporter
T1 sequence (P04150 1-777): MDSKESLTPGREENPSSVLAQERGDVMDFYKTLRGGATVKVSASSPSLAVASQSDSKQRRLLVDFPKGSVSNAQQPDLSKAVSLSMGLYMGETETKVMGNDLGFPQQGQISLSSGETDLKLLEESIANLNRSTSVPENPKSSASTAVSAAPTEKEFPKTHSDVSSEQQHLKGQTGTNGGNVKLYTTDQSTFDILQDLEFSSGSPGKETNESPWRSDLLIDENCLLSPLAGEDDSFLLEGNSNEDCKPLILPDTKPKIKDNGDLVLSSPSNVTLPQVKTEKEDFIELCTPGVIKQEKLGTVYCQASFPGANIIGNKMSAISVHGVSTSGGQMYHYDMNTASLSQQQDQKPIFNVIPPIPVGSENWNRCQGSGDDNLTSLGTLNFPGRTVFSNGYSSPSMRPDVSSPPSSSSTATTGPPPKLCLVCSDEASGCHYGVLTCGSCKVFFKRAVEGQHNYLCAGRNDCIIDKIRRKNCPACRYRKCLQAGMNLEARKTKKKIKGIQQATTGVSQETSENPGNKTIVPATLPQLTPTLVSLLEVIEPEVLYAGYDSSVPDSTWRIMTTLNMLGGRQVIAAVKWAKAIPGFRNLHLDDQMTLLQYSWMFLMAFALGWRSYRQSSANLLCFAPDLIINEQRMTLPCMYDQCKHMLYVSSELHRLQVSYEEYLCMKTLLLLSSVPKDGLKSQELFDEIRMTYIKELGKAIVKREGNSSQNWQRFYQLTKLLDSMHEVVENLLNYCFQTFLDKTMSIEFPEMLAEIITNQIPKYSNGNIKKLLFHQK
Protocol: The functional assay used was a modification of the method described by T. S Berger et al, of J. of Steroid Biochem. Molec.
Thus, Hela cells were stably transfected with a detectable reporter gene (secreted placental alkaline phosphatase, sPAP) under the control of a glucocorticoid response promoter (the LTR of the mouse mammary tumour virus, MMTV). Various concentrations of standard (dexamethasone) or compounds of the invention were incubated with transfected Hela cells for 72 hours. At the end of the incubation, substrate ([…]) for sPAP was added and the product measured by a spectrophotometric method. Increased absorbance reflected increased sPAP transcription and concentration-response lines were constructed such that EC50 -values could be estimated.

[3] = dose 6.25 μg single intravenous

| SMILES | EC50 [2] | further results |
| --- | --- | --- |
| CC1(C)O[C@@H]2C[C@H]3[C@@H]4C[C@H](F)C5=CC(=O)C=C[C@]5(C)[C@@]4(F)[C@@H](O)C[C@]3(C)[C@]2(C(=O)CS[C@H]2CCOC2=O)O1 (single isomer, unassigned) [Example 3 Isomer A, 6α,9α-Difluoro-11β-hydroxy-16α,17α-isopropylidenedioxy-21-(2-oxo-tetrahydro-furan-3S-yl-sulfanyl)-pregna-1,4-diene-3,20-dione] |  | % Reduction in ACTH at 2 h ([1]; dose 500 μg single intravenous): 16%; % Reduction in ACTH at 4 h ([1]; dose 500 μg single intravenous): 15%; % Reduction in Eosinophilia (lung eosinophilia; dose 250 μg intratracheal): 74%; % Reduction in Eosinophilia (lung eosinophilia; dose 750 μg intratracheal): 97% |
| CCCC1O[C@@H]2C[C@H]3[C@@H]4CCC5=CC(=O)C=C[C@]5(C)[C@H]4[C@@H](O)C[C@]3(C)[C@]2(C(=O)CSC2CCOC2=O)O1 (single isomer, unassigned) [Example 9 isomer A, 16α,17α-Butylidenedioxy-11β-hydroxy-21-(2-oxo-tetrahydrofuran-3-yl-sulfanyl)-pregna-1,4-diene-3,20-dione] | < 600 nM |  |
| CCCC1O[C@@H]2C[C@H]3[C@@H]4CCC5=CC(=O)C=C[C@]5(C)[C@H]4[C@@H](O)C[C@]3(C)[C@]2(C(=O)CO)O1 (stereo partly drawn) [Budesonide, reference compound] |  | % Reduction in ACTH at 2 h [1, 3]: 61%; % Reduction in ACTH at 4 h [1, 3]: 32%; % Reduction in Eosinophilia (lung eosinophilia; dose 250 μg intratracheal): 82% |
| CCC(=O)O[C@]1(C(=O)CSC2CCOC2=O)[C@H](C)C[C@H]2[C@@H]3C[C@H](F)C4=CC(=O)C=C[C@]4(C)[C@@]3(F)[C@@H](O)C[C@@]21C (stereo partly drawn) [Example 1, 6α,9α-Difluoro-11β-hydroxy-16α-methyl-21-(2-oxo-tetrahydro-furan-3-yl-sulfanyl)-17α-propionyloxy-pregna-1,4-diene-3,20-dione] | < 600 nM |  |
| CCC(=O)O[C@]1(C(=O)CSC2CCOC2=O)[C@H](C)C[C@H]2[C@@H]3C[C@H](F)C4=CC(=O)CC[C@]4(C)[C@@]3(F)[C@@H](O)C[C@@]21C (stereo partly drawn) [Example 2, 6α,9α-Difluoro-11β-hydroxy-16α-methyl-21-(2-oxo-tetrahydro-furan-3-yl-sulfanyl)-17α-propionyloxy-pregn-4-ene-3,20-dione] | < 600 nM |  |
| CC1(C)O[C@@H]2C[C@H]3[C@@H]4C[C@H](F)C5=CC(=O)CC[C@]5(C)[C@@]4(F)[C@@H](O)C[C@]3(C)[C@]2(C(=O)CSC2CCOC2=O)O1 (stereo partly drawn) [Example 6, 6α,9α-Difluoro-11β-hydroxy-16α,17α-isopropylidenedioxy-21-(2-oxo-tetrahydro-furan-3-yl-sulfanyl)-pregn-4-ene-3,20-dione] | < 600 nM |  |
| CCC[C@@H]1O[C@@H]2C[C@H]3[C@@H]4C[C@H](F)C5=CC(=O)C=C[C@]5(C)[C@@]4(F)[C@@H](O)C[C@]3(C)[C@]2(C(=O)CSC2CCOC2=O)O1 (stereo partly drawn) [Example 7, 16α,17α-(R-Butylidenedioxy)-6α,9α-difluoro-11β-hydroxy-21-(2-oxo-tetrahydro-furan-3-yl-sulfanyl)-pregna-1,4-diene-3,20-dione] | < 600 nM |  |
| CCC[C@@H]1O[C@@H]2C[C@H]3[C@@H]4C[C@H](F)C5=CC(=O)CC[C@]5(C)[C@@]4(F)[C@@H](O)C[C@]3(C)[C@]2(C(=O)CSC2CCOC2=O)O1 (stereo partly drawn) [Example 8, 16α,17α-(R-Butylidenedioxy)-6α,9α-difluoro-11β-hydroxy-21-(2-oxo-tetrahydro-furan-3-yl-sulfanyl)-pregn-4-ene-3,20-dione] | < 600 nM |  |
| CC1(C)O[C@@H]2C[C@H]3[C@@H]4C[C@H](F)C5=CC(=O)C=C[C@]5(C)[C@@]4(F)[C@@H](O)C[C@]3(C)[C@]2(C(=O)CSC2COC(=O)C2)O1 (stereo partly drawn) [Example 10, 6α,9α-Difluoro-11β-hydroxy-16α,17α-isopropylidenedioxy-21-(2-oxo-tetrahydro-furan4-yl-sulfanyl)-pregna-1,4-diene-3,20-dione] | < 600 nM |  |
| CCC[C@@H]1O[C@@H]2C[C@H]3[C@@H]4C[C@H](F)C5=CC(=O)CC[C@]5(C)[C@@]4(F)[C@@H](O)C[C@]3(C)[C@]2(C(=O)CSC2COC(=O)C2)O1 (stereo partly drawn) [Example 11, 16α,17α-(R-Butylidenedioxy)-6α,9α-difluoro-11β-hydroxy-21-(2-oxo-tetrahydro-furan-4-yl-sulfanyl)-pregn-4-ene-3,20-dione] | < 600 nM |  |
